Laboratory results from PubChem BioAssay (NCI).
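Assay format: 96-well plates, 48-hour exposure. GI50: concentration for 50% inhibition of growth. The concentration for full growth arrest is given as TGI.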

Legend:
Assay in all cases: DTP human tumour cell line panel, 48 h
786-0 renal = tested on: 786-0 renal
A498 renal = tested on: A498 renal
A549 NSCLC = tested on: A549 NSCLC
ACHN renal = tested on: ACHN renal
BT-549 breast = tested on: BT-549 breast
CAKI-1 renal = tested on: CAKI-1 renal
COLO 205 colon = tested on: COLO 205 colon
DU-145 prostate = tested on: DU-145 prostate
EKVX NSCLC = tested on: EKVX NSCLC
HCC-2998 colon = tested on: HCC-2998 colon
HCT-116 colon = tested on: HCT-116 colon
HCT-15 colon = tested on: HCT-15 colon
HL-60(TB) leukemia = tested on: HL-60(TB) leukemia
HOP-62 NSCLC = tested on: HOP-62 NSCLC
HOP-92 NSCLC = tested on: HOP-92 NSCLC
HS 578T breast = tested on: HS 578T breast
HT29 colon = tested on: HT29 colon
IGROV1 ovarian = tested on: IGROV1 ovarian
K-562 leukemia = tested on: K-562 leukemia
KM12 colon = tested on: KM12 colon
LOX IMVI melanoma = tested on: LOX IMVI melanoma
M14 melanoma = tested on: M14 melanoma
MALME-3M melanoma = tested on: MALME-3M melanoma
MCF7 breast = tested on: MCF7 breast
MDA-MB-231 breast = tested on: MDA-MB-231 breast
MDA-MB-435 = tested on: MDA-MB-435
MOLT-4 leukemia = tested on: MOLT-4 leukemia
NCI-H226 lung = tested on: NCI-H226 lung
NCI-H23 lung = tested on: NCI-H23 lung
NCI-H460 lung = tested on: NCI-H460 lung
NCI-H522 lung = tested on: NCI-H522 lung
NCI/ADR-RES ovarian = tested on: NCI/ADR-RES ovarian
OVCAR-3 ovarian = tested on: OVCAR-3 ovarian
OVCAR-4 ovarian = tested on: OVCAR-4 ovarian
OVCAR-5 ovarian = tested on: OVCAR-5 ovarian
OVCAR-8 ovarian = tested on: OVCAR-8 ovarian
PC-3 prostate = tested on: PC-3 prostate
RPMI-8226 leukemia = tested on: RPMI-8226 leukemia
RXF 393 renal = tested on: RXF 393 renal
SF-268 CNS = tested on: SF-268 CNS
SF-539 CNS = tested on: SF-539 CNS
SK-MEL-2 melanoma = tested on: SK-MEL-2 melanoma
SK-MEL-28 melanoma = tested on: SK-MEL-28 melanoma
SK-MEL-5 melanoma = tested on: SK-MEL-5 melanoma
SK-OV-3 ovarian = tested on: SK-OV-3 ovarian
SN12C renal = tested on: SN12C renal
SNB-19 CNS = tested on: SNB-19 CNS
SNB-75 CNS = tested on: SNB-75 CNS
SR leukemia = tested on: SR leukemia
SW-620 colon = tested on: SW-620 colon
T-47D breast = tested on: T-47D breast
TK-10 renal = tested on: TK-10 renal
U251 CNS = tested on: U251 CNS
UACC-257 melanoma = tested on: UACC-257 melanoma
UACC-62 melanoma = tested on: UACC-62 melanoma
UO-31 renal = tested on: UO-31 renal

In the case of `Cc1cc(I)cc(CN(C)CCCN2CCSCC2)c1O`, the GI50 (786-0 renal) is reported as 21.2 µM, the TGI (786-0 renal) is reported as 53.3 µM and the GI50 (A498 renal) is reported as 26.4 µM. The TGI (A498 renal) was 51.3 µM, the GI50 (A549 NSCLC) was 30.7 µM and the TGI (A549 NSCLC) was > 100 µM. For the same compound, the GI50 (ACHN renal) was 41 µM, the TGI (ACHN renal) was > 100 µM and the GI50 (BT-549 breast) was 14.8 µM. It also gave a TGI (BT-549 breast) of 32.6 µM, a GI50 (CAKI-1 renal) of 20 µM and a TGI (CAKI-1 renal) of 40.7 µM. It also gave a GI50 (COLO 205 colon) of 25.2 µM, a TGI (COLO 205 colon) of 55.3 µM and a GI50 (DU-145 prostate) of 41 µM. For the same compound, the TGI (DU-145 prostate) was > 100 µM, the GI50 (EKVX NSCLC) was 29.4 µM and the TGI (EKVX NSCLC) was > 100 µM. For the same compound, the GI50 (HCC-2998 colon) was 17.5 µM, the TGI (HCC-2998 colon) was 32.5 µM and the GI50 (HCT-116 colon) was 13.3 µM. It also gave a TGI (HCT-116 colon) of 30.8 µM, a GI50 (HCT-15 colon) of 17.8 µM and a TGI (HCT-15 colon) of 37.2 µM. It also gave a GI50 (HL-60(TB) leukemia) of 18.8 µM, a TGI (HL-60(TB) leukemia) of 36.6 µM and a GI50 (HOP-62 NSCLC) of 18.4 µM. It also gave a TGI (HOP-62 NSCLC) of 41.9 µM, a GI50 (HOP-92 NSCLC) of 14.6 µM and a TGI (HOP-92 NSCLC) of 47.4 µM. It also gave a GI50 (HS 578T breast) of 19.1 µM, a TGI (HS 578T breast) of 48.3 µM and a GI50 (HT29 colon) of 18.8 µM. For the same compound, the TGI (HT29 colon) was 43.1 µM, the GI50 (IGROV1 ovarian) was 33.3 µM and the TGI (IGROV1 ovarian) was > 100 µM. For the same compound, the GI50 (K-562 leukemia) was 14.2 µM, the TGI (K-562 leukemia) was 32.6 µM and the GI50 (KM12 colon) was 37.2 µM. The TGI (KM12 colon) was > 100 µM, the GI50 (LOX IMVI melanoma) was 17.2 µM and the TGI (LOX IMVI melanoma) was 33.5 µM. It also gave a GI50 (M14 melanoma) of 17.3 µM, a TGI (M14 melanoma) of 33.2 µM and a GI50 (MALME-3M melanoma) of 23.2 µM. It also gave a TGI (MALME-3M melanoma) of 44.6 µM, a GI50 (MCF7 breast) of 18.5 µM and a TGI (MCF7 breast) of 40.5 µM. The GI50 (MDA-MB-231 breast) was 27.8 µM, the TGI (MDA-MB-231 breast) was 92.3 µM and the GI50 (MDA-MB-435) was 23.2 µM. It also gave a TGI (MDA-MB-435) of 57.5 µM, a GI50 (MOLT-4 leukemia) of 19.4 µM and a TGI (MOLT-4 leukemia) of 41.6 µM. The GI50 (NCI-H226 lung) was 39.5 µM, the TGI (NCI-H226 lung) was > 100 µM and the GI50 (NCI-H23 lung) was 23.5 µM. For the same compound, the TGI (NCI-H23 lung) was 65.1 µM, the GI50 (NCI-H460 lung) was 17.8 µM and the TGI (NCI-H460 lung) was 40.2 µM. The GI50 (NCI-H522 lung) was 23.6 µM, the TGI (NCI-H522 lung) was 55.9 µM and the GI50 (NCI/ADR-RES ovarian) was 24.8 µM. For the same compound, the TGI (NCI/ADR-RES ovarian) was 76.5 µM, the GI50 (OVCAR-3 ovarian) was 29.7 µM and the TGI (OVCAR-3 ovarian) was > 100 µM. For the same compound, the GI50 (OVCAR-4 ovarian) was 44.7 µM, the TGI (OVCAR-4 ovarian) was > 100 µM and the GI50 (OVCAR-5 ovarian) was 29.1 µM. The TGI (OVCAR-5 ovarian) was 92.4 µM, the GI50 (OVCAR-8 ovarian) was 34.8 µM and the TGI (OVCAR-8 ovarian) was > 100 µM. For the same compound, the GI50 (PC-3 prostate) was 29.8 µM, the TGI (PC-3 prostate) was > 100 µM and the GI50 (RPMI-8226 leukemia) was 18.8 µM. It also gave a TGI (RPMI-8226 leukemia) of 44.4 µM, a GI50 (RXF 393 renal) of 17.2 µM and a TGI (RXF 393 renal) of 39 µM. The GI50 (SF-268 CNS) was 28.4 µM, the TGI (SF-268 CNS) was > 100 µM and the GI50 (SF-539 CNS) was 23.4 µM. It also gave a TGI (SF-539 CNS) of 62.7 µM, a GI50 (SK-MEL-2 melanoma) of 19.2 µM and a TGI (SK-MEL-2 melanoma) of 39.9 µM. The GI50 (SK-MEL-28 melanoma) was 27.9 µM, the TGI (SK-MEL-28 melanoma) was 87.6 µM and the GI50 (SK-MEL-5 melanoma) was 16.4 µM. For the same compound, the TGI (SK-MEL-5 melanoma) was 31 µM, the GI50 (SK-OV-3 ovarian) was 35.4 µM and the TGI (SK-OV-3 ovarian) was > 100 µM. The GI50 (SN12C renal) was 76.6 µM, the TGI (SN12C renal) was > 100 µM and the GI50 (SNB-19 CNS) was 25.6 µM. The TGI (SNB-19 CNS) was 55.6 µM, the GI50 (SNB-75 CNS) was 30.6 µM and the TGI (SNB-75 CNS) was > 100 µM. The GI50 (SR leukemia) was 10.6 µM, the TGI (SR leukemia) was 25.3 µM and the GI50 (SW-620 colon) was 19.4 µM. For the same compound, the TGI (SW-620 colon) was 38.9 µM, the GI50 (T-47D breast) was 31.3 µM and the TGI (T-47D breast) was > 100 µM. The GI50 (TK-10 renal) was 33.3 µM, the TGI (TK-10 renal) was 89.3 µM and the GI50 (U251 CNS) was 33.9 µM. The TGI (U251 CNS) was 95.6 µM, the GI50 (UACC-257 melanoma) was 26.4 µM and the TGI (UACC-257 melanoma) was 92.1 µM. For the same compound, the GI50 (UACC-62 melanoma) was 32 µM, the TGI (UACC-62 melanoma) was > 100 µM and the GI50 (UO-31 renal) was 26.4 µM. The TGI (UO-31 renal) was > 100 µM.
